Assay [1] has as its target Protein kinase C delta type (Homo sapiens) (UniProt Q05655). Description: PRKCD (PKC delta) Kinase screen. The settings on record: Compound concentration 1.0 uM.
The target of assay [2] is Platelet-derived growth factor receptor alpha (Homo sapiens) (UniProt P16234). Briefly: PDGFRA (PDGFR alpha) Kinase screen. Conditions: Compound concentration 1.0 uM.
Assay [3] concerns the target Tyrosine-protein kinase Yes (Homo sapiens) (UniProt P07947). Briefly: YES1 Kinase screen. Conditions: Compound concentration 1.0 uM.
In assay [4] the target is Casein kinase II subunit alpha' (Homo sapiens) (UniProt P19784). Briefly: CSNK2A2 (CK2 alpha 2) Kinase screen. Conditions: Compound concentration 1.0 uM.
Chain of Casein kinase II subunit alpha' (Homo sapiens) (P19784 whole entry, looked up): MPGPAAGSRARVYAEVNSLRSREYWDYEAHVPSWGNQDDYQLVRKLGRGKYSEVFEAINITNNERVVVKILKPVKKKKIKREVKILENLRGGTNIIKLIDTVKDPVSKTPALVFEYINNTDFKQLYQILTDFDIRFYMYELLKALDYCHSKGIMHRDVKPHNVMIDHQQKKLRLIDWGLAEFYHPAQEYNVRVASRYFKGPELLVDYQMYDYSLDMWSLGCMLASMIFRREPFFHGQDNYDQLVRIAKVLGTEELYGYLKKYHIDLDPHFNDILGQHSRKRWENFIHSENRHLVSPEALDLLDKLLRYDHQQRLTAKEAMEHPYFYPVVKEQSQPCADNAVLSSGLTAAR
Assay [5] has as its target Protein kinase C theta type (Homo sapiens) (UniProt Q04759). Briefly: PRKCQ (PKC theta) Kinase screen. The settings on record: Compound concentration 1.0 uM.
For assay [6], the target named is Mitogen-activated protein kinase 1 (Homo sapiens) (UniProt P28482). Description: MAPK1 (ERK2) Kinase screen. Conditions: Compound concentration 1.0 uM.
Chain of Mitogen-activated protein kinase 1 (Homo sapiens) (P28482 whole entry): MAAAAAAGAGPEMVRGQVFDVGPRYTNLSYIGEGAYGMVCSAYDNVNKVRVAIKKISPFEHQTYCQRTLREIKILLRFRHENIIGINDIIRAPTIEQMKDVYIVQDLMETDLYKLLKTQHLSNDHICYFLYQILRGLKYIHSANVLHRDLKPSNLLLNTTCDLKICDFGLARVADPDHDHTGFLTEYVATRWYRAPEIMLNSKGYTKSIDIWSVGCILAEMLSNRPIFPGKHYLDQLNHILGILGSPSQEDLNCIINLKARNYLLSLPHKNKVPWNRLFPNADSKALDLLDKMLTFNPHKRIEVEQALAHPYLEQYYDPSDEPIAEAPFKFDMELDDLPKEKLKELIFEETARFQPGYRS
Assay [7] deals with Sodium-dependent noradrenaline transporter (Homo sapiens, UniProt P23975). Description: Inhibition of Transporter, Norepinephrine (NET) at compound concentration of 10.0 uM in the Eurofins-Panlabs radioligand binding assay (Eurofins_assay_204410). The arrangement: ligand concentration 0.2 nM, non-specific ligand with concentration 10 uM Desipramine, incubation time 3 h, incubation temperature 4 C.
Chain of Sodium-dependent noradrenaline transporter (P23975 whole entry): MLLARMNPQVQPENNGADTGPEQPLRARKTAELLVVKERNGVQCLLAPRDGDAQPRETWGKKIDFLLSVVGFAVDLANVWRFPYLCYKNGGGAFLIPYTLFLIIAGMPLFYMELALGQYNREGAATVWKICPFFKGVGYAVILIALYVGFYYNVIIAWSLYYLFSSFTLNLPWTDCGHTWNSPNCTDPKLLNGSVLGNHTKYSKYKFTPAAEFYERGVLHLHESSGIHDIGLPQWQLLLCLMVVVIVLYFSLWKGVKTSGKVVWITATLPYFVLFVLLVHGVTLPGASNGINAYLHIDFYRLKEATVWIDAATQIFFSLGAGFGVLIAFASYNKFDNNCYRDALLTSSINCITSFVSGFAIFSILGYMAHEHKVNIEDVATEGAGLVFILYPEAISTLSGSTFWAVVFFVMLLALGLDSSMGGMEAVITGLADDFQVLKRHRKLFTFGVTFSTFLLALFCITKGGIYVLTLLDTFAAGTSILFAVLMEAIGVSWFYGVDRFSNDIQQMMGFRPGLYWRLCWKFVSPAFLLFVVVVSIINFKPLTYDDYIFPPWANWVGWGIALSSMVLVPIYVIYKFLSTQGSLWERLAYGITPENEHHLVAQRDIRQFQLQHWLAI

Assay [8] addresses T1, Serine/threonine-protein kinase 4 (Homo sapiens) (UniProt Q13043).
T1 sequence (whole entry): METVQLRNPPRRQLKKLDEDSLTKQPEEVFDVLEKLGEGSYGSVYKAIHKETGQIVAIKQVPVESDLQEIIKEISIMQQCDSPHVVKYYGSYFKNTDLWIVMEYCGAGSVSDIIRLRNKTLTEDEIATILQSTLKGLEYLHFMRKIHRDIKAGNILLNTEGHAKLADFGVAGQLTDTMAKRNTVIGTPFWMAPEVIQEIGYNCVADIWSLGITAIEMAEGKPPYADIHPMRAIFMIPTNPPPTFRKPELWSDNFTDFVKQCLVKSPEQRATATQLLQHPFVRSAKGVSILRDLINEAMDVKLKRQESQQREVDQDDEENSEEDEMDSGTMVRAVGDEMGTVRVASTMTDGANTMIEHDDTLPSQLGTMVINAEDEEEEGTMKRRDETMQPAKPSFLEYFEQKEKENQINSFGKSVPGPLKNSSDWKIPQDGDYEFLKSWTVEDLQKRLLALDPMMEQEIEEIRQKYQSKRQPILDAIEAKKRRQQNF
Description: STK4 (MST1) Kinase screen. Conditions: Compound concentration 1.0 uM.

The target in assay [9] is 5-hydroxytryptamine receptor 2A (Homo sapiens) (UniProt P28223). Conditions: Compound concentration 10.0 uM.
Chain of 5-hydroxytryptamine receptor 2A (Homo sapiens) (P28223 whole entry): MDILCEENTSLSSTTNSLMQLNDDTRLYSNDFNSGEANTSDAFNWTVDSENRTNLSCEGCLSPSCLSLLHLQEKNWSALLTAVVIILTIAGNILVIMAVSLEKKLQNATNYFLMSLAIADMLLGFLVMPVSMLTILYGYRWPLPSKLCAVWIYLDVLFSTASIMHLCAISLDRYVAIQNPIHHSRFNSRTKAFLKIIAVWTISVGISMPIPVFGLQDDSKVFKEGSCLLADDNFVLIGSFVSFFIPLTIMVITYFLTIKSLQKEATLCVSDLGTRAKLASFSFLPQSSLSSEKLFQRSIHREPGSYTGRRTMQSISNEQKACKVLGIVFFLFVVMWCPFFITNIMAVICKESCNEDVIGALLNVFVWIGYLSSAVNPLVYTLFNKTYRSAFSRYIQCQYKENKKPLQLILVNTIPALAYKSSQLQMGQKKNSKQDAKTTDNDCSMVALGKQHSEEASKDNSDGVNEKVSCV
For assay [10], the target named is Glycogen synthase kinase-3 alpha (Homo sapiens) (UniProt P49840). Description: GSK3A (GSK3 alpha) Kinase screen. The settings on record: Compound concentration 1.0 uM.
Assay [11] addresses RAC-gamma serine/threonine-protein kinase (Homo sapiens) (UniProt Q9Y243). Briefly: AKT3 (PKB gamma) Kinase screen. Conditions: Compound concentration 1.0 uM.
Assay [12] has as its target Protein kinase C beta type (Homo sapiens) (UniProt P05771). Description: PRKCB1 (PKC beta I) Kinase screen. Conditions: Compound concentration 1.0 uM.
For assay [13], the target named is T2, Serine/threonine-protein kinase TBK1 (Homo sapiens) (UniProt Q9UHD2).
T2 sequence (whole entry): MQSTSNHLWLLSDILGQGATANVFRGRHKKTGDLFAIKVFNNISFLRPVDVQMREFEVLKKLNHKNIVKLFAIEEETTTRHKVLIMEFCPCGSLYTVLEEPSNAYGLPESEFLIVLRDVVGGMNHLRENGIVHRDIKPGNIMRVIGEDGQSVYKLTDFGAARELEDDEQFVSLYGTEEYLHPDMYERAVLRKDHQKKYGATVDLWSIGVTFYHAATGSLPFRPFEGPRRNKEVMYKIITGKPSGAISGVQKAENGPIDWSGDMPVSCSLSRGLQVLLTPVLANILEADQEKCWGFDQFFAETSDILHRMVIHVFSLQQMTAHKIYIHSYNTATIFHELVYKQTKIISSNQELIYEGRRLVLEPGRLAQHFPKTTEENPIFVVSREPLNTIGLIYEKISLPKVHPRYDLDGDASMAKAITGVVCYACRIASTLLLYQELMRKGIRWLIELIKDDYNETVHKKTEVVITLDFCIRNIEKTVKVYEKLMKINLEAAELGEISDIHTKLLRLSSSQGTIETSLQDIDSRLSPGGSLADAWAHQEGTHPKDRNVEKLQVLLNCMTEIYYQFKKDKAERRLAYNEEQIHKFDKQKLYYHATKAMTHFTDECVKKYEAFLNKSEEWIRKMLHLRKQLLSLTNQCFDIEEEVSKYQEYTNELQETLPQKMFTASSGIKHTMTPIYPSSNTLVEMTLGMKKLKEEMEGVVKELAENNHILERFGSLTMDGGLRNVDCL
Description: TBK1 Kinase screen. Conditions: Compound concentration 1.0 uM.

Assay [14] has as its target T3, 5-hydroxytryptamine receptor 3A (Homo sapiens) (UniProt P46098).
T3 sequence (whole entry): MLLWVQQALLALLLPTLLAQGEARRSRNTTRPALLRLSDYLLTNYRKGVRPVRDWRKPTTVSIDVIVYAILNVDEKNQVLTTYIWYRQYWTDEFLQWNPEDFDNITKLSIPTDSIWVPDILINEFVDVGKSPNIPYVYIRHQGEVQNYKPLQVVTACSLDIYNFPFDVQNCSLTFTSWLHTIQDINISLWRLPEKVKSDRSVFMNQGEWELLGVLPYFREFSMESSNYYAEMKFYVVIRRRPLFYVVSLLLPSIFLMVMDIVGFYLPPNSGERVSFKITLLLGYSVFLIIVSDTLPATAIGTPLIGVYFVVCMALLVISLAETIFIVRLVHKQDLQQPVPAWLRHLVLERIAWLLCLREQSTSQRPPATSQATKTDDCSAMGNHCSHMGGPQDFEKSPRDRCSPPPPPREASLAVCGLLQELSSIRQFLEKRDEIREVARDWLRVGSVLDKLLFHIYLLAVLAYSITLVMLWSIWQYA
Description: Inhibition of Serotonin (5-Hydroxytryptamine) 5-HT3 at 10 µM in the Eurofins-Panlabs radioligand binding assay (Eurofins_assay_271910). The arrangement: ligand concentration 0.69 nM. The settings on record: Compound concentration 10.0 uM.

Chain of Protein kinase C beta type (Homo sapiens) (P05771 2-671 limits assumed): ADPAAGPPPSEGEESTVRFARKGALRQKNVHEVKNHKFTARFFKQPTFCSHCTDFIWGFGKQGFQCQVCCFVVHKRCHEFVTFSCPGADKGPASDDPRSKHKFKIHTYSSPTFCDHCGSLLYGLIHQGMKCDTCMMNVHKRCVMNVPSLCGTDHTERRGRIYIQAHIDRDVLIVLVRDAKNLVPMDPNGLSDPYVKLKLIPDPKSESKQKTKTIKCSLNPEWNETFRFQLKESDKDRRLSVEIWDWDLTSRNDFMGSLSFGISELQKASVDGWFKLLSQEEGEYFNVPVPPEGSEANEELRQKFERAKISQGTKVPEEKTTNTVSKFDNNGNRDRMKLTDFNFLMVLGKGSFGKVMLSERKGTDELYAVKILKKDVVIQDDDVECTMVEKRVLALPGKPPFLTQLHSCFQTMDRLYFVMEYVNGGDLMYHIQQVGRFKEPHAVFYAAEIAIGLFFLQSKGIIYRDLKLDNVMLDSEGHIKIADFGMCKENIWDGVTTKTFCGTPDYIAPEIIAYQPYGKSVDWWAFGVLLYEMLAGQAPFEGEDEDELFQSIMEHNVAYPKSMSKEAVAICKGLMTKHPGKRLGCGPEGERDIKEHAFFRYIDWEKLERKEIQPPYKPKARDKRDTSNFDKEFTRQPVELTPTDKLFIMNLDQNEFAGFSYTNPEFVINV
Chain of Tyrosine-protein kinase Yes (Homo sapiens) (P07947 2-543 limits assumed): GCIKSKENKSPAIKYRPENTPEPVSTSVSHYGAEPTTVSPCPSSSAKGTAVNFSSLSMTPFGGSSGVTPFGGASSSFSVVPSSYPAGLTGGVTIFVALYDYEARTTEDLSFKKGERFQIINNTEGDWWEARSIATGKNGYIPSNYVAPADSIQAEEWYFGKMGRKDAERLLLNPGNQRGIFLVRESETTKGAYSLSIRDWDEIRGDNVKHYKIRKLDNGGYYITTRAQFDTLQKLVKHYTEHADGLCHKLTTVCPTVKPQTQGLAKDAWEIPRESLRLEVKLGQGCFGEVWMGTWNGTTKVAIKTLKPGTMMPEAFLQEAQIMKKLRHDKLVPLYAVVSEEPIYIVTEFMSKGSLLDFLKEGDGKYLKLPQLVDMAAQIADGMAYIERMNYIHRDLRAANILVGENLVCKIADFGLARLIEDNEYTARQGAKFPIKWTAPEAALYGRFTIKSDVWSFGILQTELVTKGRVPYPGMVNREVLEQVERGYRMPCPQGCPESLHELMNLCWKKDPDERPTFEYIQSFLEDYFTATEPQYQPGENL
Chain of Protein kinase C theta type (Homo sapiens) (Q04759 whole entry, looked up): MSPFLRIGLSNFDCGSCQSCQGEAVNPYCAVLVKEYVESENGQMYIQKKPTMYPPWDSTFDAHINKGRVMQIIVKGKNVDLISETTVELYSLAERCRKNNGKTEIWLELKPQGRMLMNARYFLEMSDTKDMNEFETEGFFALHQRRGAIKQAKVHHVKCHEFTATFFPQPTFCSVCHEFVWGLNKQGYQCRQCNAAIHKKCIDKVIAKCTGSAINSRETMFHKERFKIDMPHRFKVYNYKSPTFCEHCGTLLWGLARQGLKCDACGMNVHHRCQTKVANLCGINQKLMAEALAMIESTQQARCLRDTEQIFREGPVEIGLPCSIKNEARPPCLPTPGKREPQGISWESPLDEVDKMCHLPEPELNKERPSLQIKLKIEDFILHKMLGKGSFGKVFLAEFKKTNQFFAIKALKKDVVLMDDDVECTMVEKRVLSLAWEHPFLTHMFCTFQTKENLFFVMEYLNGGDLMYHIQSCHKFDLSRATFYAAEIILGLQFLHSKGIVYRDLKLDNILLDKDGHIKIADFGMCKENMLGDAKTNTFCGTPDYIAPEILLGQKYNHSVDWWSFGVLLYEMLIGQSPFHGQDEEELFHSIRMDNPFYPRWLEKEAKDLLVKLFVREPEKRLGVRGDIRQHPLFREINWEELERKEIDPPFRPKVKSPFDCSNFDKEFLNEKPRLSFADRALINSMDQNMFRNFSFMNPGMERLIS
Chain of Protein kinase C delta type (Homo sapiens) (Q05655 whole entry, looked up): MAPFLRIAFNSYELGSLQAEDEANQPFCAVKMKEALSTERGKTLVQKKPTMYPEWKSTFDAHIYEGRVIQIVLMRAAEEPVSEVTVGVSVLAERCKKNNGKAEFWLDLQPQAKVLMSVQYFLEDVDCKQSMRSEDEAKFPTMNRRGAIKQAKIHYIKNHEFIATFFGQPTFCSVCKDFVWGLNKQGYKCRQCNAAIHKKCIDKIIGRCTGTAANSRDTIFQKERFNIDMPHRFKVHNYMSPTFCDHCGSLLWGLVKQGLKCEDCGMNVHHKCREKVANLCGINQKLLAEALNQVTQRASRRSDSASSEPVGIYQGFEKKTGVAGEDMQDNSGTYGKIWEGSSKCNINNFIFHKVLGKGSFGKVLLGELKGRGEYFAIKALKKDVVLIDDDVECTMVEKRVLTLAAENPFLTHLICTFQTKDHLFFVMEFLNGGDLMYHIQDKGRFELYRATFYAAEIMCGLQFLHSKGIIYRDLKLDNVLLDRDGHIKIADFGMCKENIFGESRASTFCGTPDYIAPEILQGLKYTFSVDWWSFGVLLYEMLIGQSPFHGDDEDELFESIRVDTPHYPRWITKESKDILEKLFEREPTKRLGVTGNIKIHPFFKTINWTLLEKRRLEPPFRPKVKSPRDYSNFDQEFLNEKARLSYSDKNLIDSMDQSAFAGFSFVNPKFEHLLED
Chain of RAC-gamma serine/threonine-protein kinase (Homo sapiens) (Q9Y243 whole entry): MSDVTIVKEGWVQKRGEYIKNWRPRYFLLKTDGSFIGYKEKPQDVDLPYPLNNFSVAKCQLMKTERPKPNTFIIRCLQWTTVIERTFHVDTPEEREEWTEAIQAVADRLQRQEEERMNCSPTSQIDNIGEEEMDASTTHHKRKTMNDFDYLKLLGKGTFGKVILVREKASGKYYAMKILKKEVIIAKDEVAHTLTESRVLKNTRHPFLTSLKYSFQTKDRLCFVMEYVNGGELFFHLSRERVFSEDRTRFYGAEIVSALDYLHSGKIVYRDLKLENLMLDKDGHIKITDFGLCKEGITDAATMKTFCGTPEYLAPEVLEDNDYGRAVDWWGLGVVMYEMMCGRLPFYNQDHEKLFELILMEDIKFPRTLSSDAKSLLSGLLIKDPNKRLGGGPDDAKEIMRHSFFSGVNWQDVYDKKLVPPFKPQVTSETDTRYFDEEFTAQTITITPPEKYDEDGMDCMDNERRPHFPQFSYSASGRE

In the case of `C[C@@H]1CN(c2cc(-c3n[nH]c4ccc(OC5(C)CC5)cc34)ncn2)C[C@H](C)O1` [MLi-2], the inhibition (in general, the drop in the measured response relative to a control, in per cent) in assay [1] is 3.65%; in [2], 0.395%; in [3], 5.77%; in assay [4], 10.4%; in assay [5], 2.46%; in assay [6], -3.99%. Further, the inhibition in [8] is 21.8%; in [9], 6%; in assay [10], 0.0184%; in assay [11], 7.75%; in [12], -7.69%; in assay [13] it was 7.78%. Moreover, the inhibition in [14] was -9%. Moreover, in assay [7], the Ki – broadly, the dissociation constant of the complex between target and ligand, obtained from inhibition or displacement – came out at 3.79 µM.

These data come from ChEMBL document CHEMBL4507291 (2021).
